In US11090275B2, “Compositions comprising cannabidiol and second therapeutic agents for the treatment of cancer” (JAY PHARMA, INC., priority 2015, dated 2021):
Like-named read-outs stand apart in the source and are kept apart here.

Key:
[1] = system: CCRF-CEM cells; test: Morphological quantification of apoptosis (acridine orange/ethidium bromide), CCRF-CEM; assay type: cell-based, human; details: serum free and 5% FCS medium, 24h
Protocol: (§1) for determination of apoptosis, cells were harvested (650 g, 7 min) and stained with acridine orange/ethidium bromide at a final concentration of 0.05 mg/ml. This method allows distinguishing between live, necrotic and apoptotic cells (FIG. 11). […] At least 100 cells were counted under a fluorescence microscope and the percentage of affected cells was calculated.

[2] = system: HL-60 tumor; test: Mouse xenograft model transplanted with HL-60 cells; assay type: in vivo; details: 5 mg/kg CBD, 10 mg/kg CL, alone and combination, peritumoral; days 7 through 14
Protocol: NOD/SCID mice were bred and housed at animal facility of Ben-Gurion University of the Negev, Israel. All animals were used between 7-8 weeks old of age. For induction of tumor, mice were irradiated with 2.7 Gy X ray radiation for 2 min. The following 5 hours, mice were injected with 1 million viable HL-60 cells on right flank of mice. Mice were monitored for tumorigenesis. Tumors were measured during 14 days and their volumes (mm^3) were calculated as (d^2XD)/2 (where d is the shortest and D is the longest diameter of the tumor in mm). […] The injection was repeated once a day, 5 days per week, and tumor volumes were checked twice a week until the vehicle died and the remained animals were sacrificed.

[3] = system: HL-60 cells; test: XTT cell viability, HL-60 cells; assay type: cell-based, human; details: for IC50: Homo sapiens
Protocol: (§2) human HL-60, myeloblastic leukemia and CCRF-CEM, acute lymphoblastic leukemia cell line were cultured in RPMI-1640 supplemented with 10% (v/v) heat-inactivated fetal calf serum, 2 mM L-glutamine, 100U/ml penicillin and 100 μg/ml streptomycin. MCF-7, breast cancer and A-172, glioblastoma cell lines were cultured in DMEM supplemented with 10% (v/v) heat-inactivated fetal calf serum, 2 mM L-glutamine, 100U/ml penicillin and 100 μg/ml streptomycin. Cultures were maintained at 37° C. in a humidified atmosphere with 5% CO2 and maintained in exponential phase by transfer to fresh medium every 2-3 days. Experiments were conducted in serum free medium and 5% or 10% FCS medium. The trypanblue dye exclusion method was used for cell counting performed using a hemocytometer under light microscope.

[4] = system: HL-60 cells; test: Morphological quantification of apoptosis (acridine orange/ethidium bromide), HL-60; assay type: cell-based, human; details: 5% FCS medium, 24 and 48h
Protocol: as §1

[5] = system: MCF-7 cells; test: XTT cell viability, MCF-7 cells; assay type: cell-based; details: cannabidiol at 5 μM or more, 24h
Protocol: as §2

[6] = system: Mcl-1; test: Western blot of Mcl-1 in CCRF-CEM cells; assay type: cell-based, human; details: 20 μM cannabidiol, by 3h of treatment
Protocol: Cells washed twice with ice cold PBS and lysed in RIPA buffer (50 mM Tris-HCl, 0.1% NP-40, 1 mM DTT, 0.25M sucrose, 2 mM MgCl2, pH 7.4) for 30 min on ice. After centrifugation, the post-nuclear supernatant containing the cell soluble fraction were loaded on to a 12% SDS-PAGE gel. After electrophoresis, the gels were blotted onto a PVDF membrane (Bio-Rad, Hercules, Calif.), blocked with 5% (w/v) milk for overnight at 4° C. temperature, washed briefly in Tris-Buffered Saline Tween-20 (TBST), and then probed overnight at 4° C. with the anti-mouse human anti-MC1-1 and calreticulin (CRN) primary antibodies. Primary antibody binding was detected with anti-mouse IgG conjugated to horseradish peroxidase (Jackson Immunoresearch, Avondale, Pa.), and made visible by enhanced chemiluminescence (ECL) (Biological Industries, Israel), according to manufacturer's instructions. Antibodies against MCl-1 and calreticulin (CRN) were purchased from Santa Cruz, Calif., USA.

[7] = system: A-172 cells; test: XTT cell viability, A-172 cells; assay type: cell-based, human; details: cannabidiol at 5 μM or more, 48h
Protocol: as §2

[8] = system: CCRF-CEM cells; test: XTT cell viability, CCRF-CEM cells; assay type: cell-based, human; details: cannabidiol at 5 μM or more, 24h
Protocol: as §2

| SMILES | induction of apoptosis [1] | HL-60 tumor growth [2] | effect on cell viability at very low concentration ([3]; 0.2 μM, serum free condition, 24h) | sensitivity of cells to CBD ([3]; 10% FCS medium, 24h) | IC50 ([3]; HL-60, 24 h, read-out: IC50, cell viability) [µM] | IC50 ([3]; HL-60, 48 h, read-out: IC50 value, cell viability) [µM] | number of viable cells ([3]; cannabidiol at 5 μM or more, 24h and 48 h) | induction of apoptosis [4] | number of viable cells [5] | Mcl-1 expression [6] | number of viable cells [7] | number of viable cells [8] |
| --- | --- | --- | --- | --- | --- | --- | --- | --- | --- | --- | --- | --- |
| C=C(C)[C@@H]1CCC(C)=C[C@H]1c1c(O)cc(CCCCC)cc1O [CBD, Cannabidiol] | dose and time dependent induction of apoptosis | significant suppression | profound effect on reduction of cell viability | less sensitive | 0.26 | 16 | significant reduction in the number of viable cells | dose and time dependent induction of apoptosis | significant reduction in the number of viable cells | down regulated | significant reduction in the number of viable cells | significant reduction in the number of viable cells |
| CCN(CC)CCOc1ccc(C(=C(Cl)c2ccccc2)c2ccccc2)cc1 [clomiphene] |  | significant suppression |  |  |  |  |  |  |  |  |  |  |
